What was measured:
Conditions in all cases: 48 h
NOMO1 [1] = experiment: AUC of viability dose-response curve (% viability x log10 dose units); higher = less sensitive
How it was run: (§1)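 Area under the curve was integrated by trapezoidal rule from a log-logistic fit of normalised viability, with curves exceeding full viability scaled and quality-control failures removed. The fit had four parameters over log10 doses. Viability came from CellTiter-Glo One luminescence, normalised per plate to DMSO and cell-free wells, after leukemia cells adapted to each medium (500 or 1000 cells/well, 1536-well plates) were exposed to library compounds in DMSO for 48 h at 37°C. The 11 threefold doses ran from 47 μM to 0.79 nM.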

SEM cells [2] = experiment: as above
How it was run: as §1

P12-Ichikawa [3] = experiment: as above
How it was run: as §1

SEM cells [4] = experiment: cell viability relative to DMSO control; higher = less cytotoxic
How it was run: (§2)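 Before seeding, each leukemia line was adapted for at least four passages in each medium. NOMO1 or SEM cells (500 cells/well) and P12-Ichikawa cells (1000 cells/well) went into 1536-well plates at 5 μl, then received library compounds in DMSO by pin dosing across 11 threefold concentrations, 47 μM to 0.79 nM. Readout was CellTiter-Glo One luminescence after 48 h at 37°C, and viability is given as a per-plate percentage of DMSO wells, with cell-free wells as background.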

NOMO1 [5] = experiment: as above
How it was run: as §2

P12-Ichikawa [6] = experiment: as above
How it was run: as §2

Cn1cc(-c2ccc(F)c(C(F)(F)F)c2)nc1C1CCN(c2ncnc3[nH]ncc23)CC1
AUC of viability dose-response curve
Conditions	NOMO1 [1]	P12-Ichikawa [3]	SEM cells [2]
HPLM + 10% dialyzed FBS	447	463	441
RPMI 5 mM glucose + 10% FBS	447	444	461
RPMI 5 mM glucose + 10% dialyzed FBS	435	446	449

CN(C)/N=N/c1nc[nH]c1C(N)=O
SEM cells [4], HPLM + 10% dialyzed FBS
Conditions	cell viability [%]
0.000781 µM	121
0.00234 µM	122
0.00702 µM	117
0.0211 µM	126
0.0632 µM	125
0.19 µM	120
0.569 µM	128
1.71 µM	119
5.12 µM	123
15.4 µM	106
46.1 µM	105

AUC of viability dose-response curve
Conditions	NOMO1 [1]	P12-Ichikawa [3]	SEM cells [2]
HPLM + 10% dialyzed FBS	416	422	467
RPMI 5 mM glucose + 10% FBS	435	410	462
RPMI 5 mM glucose + 10% dialyzed FBS	392	374	307

CC(=O)[C@]1(O)Cc2c(O)c3c(c(O)c2[C@@H](O[C@H]2C[C@H](N)[C@H](O)[C@H](C)O2)C1)C(=O)c1ccccc1C3=O
cell viability [%], SEM cells [4]
Conditions	HPLM + 10% dialyzed FBS	RPMI 5 mM glucose + 10% FBS	RPMI 5 mM glucose + 10% dialyzed FBS
0.000781 µM	118	104	126
0.00234 µM	127	117	110
0.00702 µM	123	113	116
0.0211 µM	124	104	125
0.0632 µM	128	97.8	113
0.19 µM	119	101	97.1
0.569 µM	98.8	80.3	90.3
1.71 µM	34.5	18.9	31.2
5.12 µM	8.24	7.45	6.01
15.4 µM	7.58	6.93	5.83
46.1 µM	6.23	4.81	4.8

AUC of viability dose-response curve
Conditions	HPLM + 10% dialyzed FBS	RPMI 5 mM glucose + 10% FBS	RPMI 5 mM glucose + 10% dialyzed FBS
NOMO1 [1]	364	367	374
SEM cells [2]	320	313	313

C[C@@H](O)[C@@H]1NC(=O)[C@H](CCCCN)NC(=O)[C@@H](Cc2c[nH]c3ccccc23)NC(=O)[C@H](Cc2ccccc2)NC(=O)[C@@H](NC(=O)[C@H](N)Cc2ccccc2)CSSC[C@@H](C(=O)N[C@H](CO)[C@@H](C)O)NC1=O
cell viability [%]
Conditions	NOMO1 [5]	P12-Ichikawa [6]	SEM cells [4]
HPLM + 10% dialyzed FBS, 0.000781 µM	75.7	84.1	71.3
HPLM + 10% dialyzed FBS, 0.00234 µM	75	94.4	83.6
HPLM + 10% dialyzed FBS, 0.00702 µM	90	88.9	87.8
HPLM + 10% dialyzed FBS, 0.0211 µM	88.1	90.5	91
HPLM + 10% dialyzed FBS, 0.0632 µM	103	91.7	99
HPLM + 10% dialyzed FBS, 0.19 µM	83.6	94.1	78.3
HPLM + 10% dialyzed FBS, 0.569 µM	91.8	91.3	83.4
HPLM + 10% dialyzed FBS, 1.71 µM	82.5	95.8	91.2
HPLM + 10% dialyzed FBS, 5.12 µM	74.2	89.4	97.5
HPLM + 10% dialyzed FBS, 15.4 µM	81.8	92	97.7
HPLM + 10% dialyzed FBS, 46.1 µM	75.9	95	84.6
RPMI 5 mM glucose + 10% FBS, 0.000781 µM	74.6	76.4	67.4
RPMI 5 mM glucose + 10% FBS, 0.00234 µM	79.4	85.1	94.4
RPMI 5 mM glucose + 10% FBS, 0.00702 µM	83.1	83	83.2
RPMI 5 mM glucose + 10% FBS, 0.0211 µM	79.3	87.2	105
RPMI 5 mM glucose + 10% FBS, 0.0632 µM	83.3	81.7	90.6
RPMI 5 mM glucose + 10% FBS, 0.19 µM	81.6	81.3	55.5
RPMI 5 mM glucose + 10% FBS, 0.569 µM	84.5	83	82.6
RPMI 5 mM glucose + 10% FBS, 1.71 µM	76.8	83.8	91.6
RPMI 5 mM glucose + 10% FBS, 5.12 µM	80.7	86.4	101
RPMI 5 mM glucose + 10% FBS, 15.4 µM	81.1	78.8	90.4
RPMI 5 mM glucose + 10% FBS, 46.1 µM	83.5	81	70.4
RPMI 5 mM glucose + 10% dialyzed FBS, 0.000781 µM	86.9	83	64.8
RPMI 5 mM glucose + 10% dialyzed FBS, 0.00234 µM	89	80.8	81
RPMI 5 mM glucose + 10% dialyzed FBS, 0.00702 µM	87	85.7	84.5
RPMI 5 mM glucose + 10% dialyzed FBS, 0.0211 µM	92.2	82.6	86.1
RPMI 5 mM glucose + 10% dialyzed FBS, 0.0632 µM	93.6	84.9	78.7
RPMI 5 mM glucose + 10% dialyzed FBS, 0.19 µM	85.3	79.8	75.1
RPMI 5 mM glucose + 10% dialyzed FBS, 0.569 µM	101	80.1	81.7
RPMI 5 mM glucose + 10% dialyzed FBS, 1.71 µM	92.5	84.7	74.7
RPMI 5 mM glucose + 10% dialyzed FBS, 5.12 µM	91.2	79.8	97.1
RPMI 5 mM glucose + 10% dialyzed FBS, 15.4 µM	103	79.9	85.6
RPMI 5 mM glucose + 10% dialyzed FBS, 46.1 µM	112	79.7	67.3

AUC of viability dose-response curve
Conditions	HPLM + 10% dialyzed FBS	RPMI 5 mM glucose + 10% FBS	RPMI 5 mM glucose + 10% dialyzed FBS
P12-Ichikawa [3]	438	395	391
SEM cells [2]	422	404	380

Reference: the supplement of paper PMC11451515
